Source: US9833490B1, “Drug combination for the treatment of infertility and its preparation methods and applications” (SICHUAN SHANZE BIOTECH.,LTD., priority 2017, dated 2017)

Target: xanthine oxidase (Homo sapiens, UniProt P47989)
Test: Xanthine oxidase inhibitory activity
Format: biochemical
Settings: relative to allopurinol

Sequence of xanthine oxidase (P47989 whole entry, species assumed): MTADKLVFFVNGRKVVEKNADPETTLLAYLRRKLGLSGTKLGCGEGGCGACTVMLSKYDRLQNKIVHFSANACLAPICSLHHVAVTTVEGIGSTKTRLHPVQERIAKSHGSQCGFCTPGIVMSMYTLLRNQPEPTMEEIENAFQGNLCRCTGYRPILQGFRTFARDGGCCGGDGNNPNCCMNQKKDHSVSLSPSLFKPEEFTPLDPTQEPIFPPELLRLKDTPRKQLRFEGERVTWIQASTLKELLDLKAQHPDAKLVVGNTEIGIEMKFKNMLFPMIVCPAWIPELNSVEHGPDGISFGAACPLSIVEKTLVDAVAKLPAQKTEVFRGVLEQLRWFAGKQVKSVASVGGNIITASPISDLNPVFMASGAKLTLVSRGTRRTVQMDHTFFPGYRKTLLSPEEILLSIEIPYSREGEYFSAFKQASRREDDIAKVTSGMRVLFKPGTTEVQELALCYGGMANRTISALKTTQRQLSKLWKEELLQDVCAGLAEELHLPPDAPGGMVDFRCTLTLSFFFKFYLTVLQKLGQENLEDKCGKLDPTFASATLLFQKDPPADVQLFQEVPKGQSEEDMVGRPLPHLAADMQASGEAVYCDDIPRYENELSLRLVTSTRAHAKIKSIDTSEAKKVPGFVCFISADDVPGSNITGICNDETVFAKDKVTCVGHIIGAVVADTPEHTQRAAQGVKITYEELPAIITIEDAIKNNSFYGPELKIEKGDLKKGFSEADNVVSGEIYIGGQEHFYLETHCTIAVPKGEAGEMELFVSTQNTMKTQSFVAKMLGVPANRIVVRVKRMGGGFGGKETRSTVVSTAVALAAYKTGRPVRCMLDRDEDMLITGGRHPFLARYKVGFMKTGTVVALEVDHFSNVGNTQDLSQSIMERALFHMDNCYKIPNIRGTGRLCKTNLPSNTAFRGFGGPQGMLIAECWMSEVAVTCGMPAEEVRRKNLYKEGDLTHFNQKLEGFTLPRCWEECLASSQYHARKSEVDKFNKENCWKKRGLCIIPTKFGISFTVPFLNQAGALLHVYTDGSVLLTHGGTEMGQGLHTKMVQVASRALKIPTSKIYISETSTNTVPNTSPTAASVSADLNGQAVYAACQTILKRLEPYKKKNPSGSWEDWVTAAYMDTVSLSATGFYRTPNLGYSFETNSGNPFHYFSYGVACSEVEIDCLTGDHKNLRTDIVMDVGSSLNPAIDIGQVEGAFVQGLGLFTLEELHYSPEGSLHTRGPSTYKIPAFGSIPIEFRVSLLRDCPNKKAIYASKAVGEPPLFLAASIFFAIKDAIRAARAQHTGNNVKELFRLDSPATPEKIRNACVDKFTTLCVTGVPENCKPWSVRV

SMILES: O=c1c(O)c(-c2ccc(O)c(O)c2)oc2c(O)c(O)ccc12 [melanoxetin, 3,7,8,3′,4′-pentahydroxyflavone]
- xanthine oxidase inhibitory activity, fold higher than allopurinol: 17 fold

SMILES: O=C(/C=C/c1ccc(O)c(O)c1)c1ccc(O)c(O)c1O [okanin, 3,4,2′,3′,4′-pentahydroxy trans-chalcone]
- xanthine oxidase inhibitory activity, fold higher than allopurinol: 63 fold
